In patent publication US20040229844A1, “Method of treating atherosclerosis, dyslipidemias and related conditions” (priority 2003, published 2004):
Entries after “also recorded” stand apart in the source; their conditions may differ.

Tests used:
[1] = tested on: nicotinic acid-induced vasodilation; test: Nicotinic acid-induced vasodilation in mice (ear perfusion, laser Doppler); assay type: in vivo, mouse; details: male C57BL/6 mice, DP antagonist ~40 mpk i.p., nicotinic acid ~100 mpk s.c., FIGS. 2 and 3
Procedure: Blood flow in the mouse ear (a measure of vasodilation, a prominent component of flushing in humans) is measured after administration of nicotinic acid to mice that had been pretreated with vehicle (as a control) or a DP antagonist. Specifically, male C57BL/6 mice (˜25 g) were used in the study. Five mice were evaluated in each test group. Nembutal was diluted with water to a final concentration of 5 mg/ml and injected 0.3 ml/mouse intraperitoneally. DP antagonists were dissolved in 5% hydroxypropyl β-cyclodextrin at a final concentration of 5 mg/mi and the compounds were administered intraperitoneally at a volume of 0.2 mi/mouse (˜40 mpk). Nicotinic acid was dissolved in 5% hydroxypropyl β-cyclodextrin at a final concentration of 12.5 mg/mi. […]
Perfusion of mouse ear skin was monitored with a laser Doppler perfusion imager (PeriScan PIM II, Perimed, Sweden) every 30 seconds for 15 minutes starting 5 minutes prior to nicotinic acid administration. Percent changes in mean perfusion over the 10 minute period after vehicle or nicotinic acid administration were calculated and a graph of percent change in mean perfusion vs. time was generated for each animal. The area under the curve (AUC) of mean perfusion (% Δ×min) was then calculated from each graph and the results are expressed in mean AUC±SEM for each group.

[2] = tested on: prostaglandin D2-induced vasodilation; test: Prostaglandin D2-induced vasodilation in mice; assay type: in vivo, mouse; details: FIG. 1
Text: Compound D suppressed PGD-2 induced vasodilation in the mouse (FIG. 1). The DP antagonists tested suppressed nicotinic acid-induced vasodilation in the mouse; data for selected compounds is provided in FIGS. 2 and 3.

Compound: CC(O)c1cc(S(C)(=O)=O)cc2c3c(n(Cc4ccc(Cl)cc4)c12)[C@@H](CC(=O)O)CC3 (some centres unmarked) [Compound D]
- inhibition of nicotinic acid-induced vasodilation [1]: inhibits
- inhibition of prostaglandin D2-induced vasodilation [2]: inhibits; also recorded: suppressed
